According to patent publication US20240132485A1, “HETEROCYCLIC CULLIN RING UBIQUITIN LIGASE COMPOUNDS AND USES THEREOF” (CEMM - FORSCHUNGSZENTRUM FÜR MOLEKULARE MEDIZIN GMBH, priority 2020, published 2024):

How the values were obtained:
[1] = biological target: T1, DDB1-CDK12/Cyclin K ternary complex (Homo sapiens, UniProt Q16531+Q9NYV4); experiment: NanoBRET fold-change assay (HaloTag_CDK12 / NanoLuc_DDB1 in HEK293T); assay type: cell-based; settings: 10 μM compound, 10 minutes
T1 construct: expressed in transfected cells; host or cells: HEK293T wildtype cells, transient PEI transfection
T1 sequence (Q9NYV4 whole entry): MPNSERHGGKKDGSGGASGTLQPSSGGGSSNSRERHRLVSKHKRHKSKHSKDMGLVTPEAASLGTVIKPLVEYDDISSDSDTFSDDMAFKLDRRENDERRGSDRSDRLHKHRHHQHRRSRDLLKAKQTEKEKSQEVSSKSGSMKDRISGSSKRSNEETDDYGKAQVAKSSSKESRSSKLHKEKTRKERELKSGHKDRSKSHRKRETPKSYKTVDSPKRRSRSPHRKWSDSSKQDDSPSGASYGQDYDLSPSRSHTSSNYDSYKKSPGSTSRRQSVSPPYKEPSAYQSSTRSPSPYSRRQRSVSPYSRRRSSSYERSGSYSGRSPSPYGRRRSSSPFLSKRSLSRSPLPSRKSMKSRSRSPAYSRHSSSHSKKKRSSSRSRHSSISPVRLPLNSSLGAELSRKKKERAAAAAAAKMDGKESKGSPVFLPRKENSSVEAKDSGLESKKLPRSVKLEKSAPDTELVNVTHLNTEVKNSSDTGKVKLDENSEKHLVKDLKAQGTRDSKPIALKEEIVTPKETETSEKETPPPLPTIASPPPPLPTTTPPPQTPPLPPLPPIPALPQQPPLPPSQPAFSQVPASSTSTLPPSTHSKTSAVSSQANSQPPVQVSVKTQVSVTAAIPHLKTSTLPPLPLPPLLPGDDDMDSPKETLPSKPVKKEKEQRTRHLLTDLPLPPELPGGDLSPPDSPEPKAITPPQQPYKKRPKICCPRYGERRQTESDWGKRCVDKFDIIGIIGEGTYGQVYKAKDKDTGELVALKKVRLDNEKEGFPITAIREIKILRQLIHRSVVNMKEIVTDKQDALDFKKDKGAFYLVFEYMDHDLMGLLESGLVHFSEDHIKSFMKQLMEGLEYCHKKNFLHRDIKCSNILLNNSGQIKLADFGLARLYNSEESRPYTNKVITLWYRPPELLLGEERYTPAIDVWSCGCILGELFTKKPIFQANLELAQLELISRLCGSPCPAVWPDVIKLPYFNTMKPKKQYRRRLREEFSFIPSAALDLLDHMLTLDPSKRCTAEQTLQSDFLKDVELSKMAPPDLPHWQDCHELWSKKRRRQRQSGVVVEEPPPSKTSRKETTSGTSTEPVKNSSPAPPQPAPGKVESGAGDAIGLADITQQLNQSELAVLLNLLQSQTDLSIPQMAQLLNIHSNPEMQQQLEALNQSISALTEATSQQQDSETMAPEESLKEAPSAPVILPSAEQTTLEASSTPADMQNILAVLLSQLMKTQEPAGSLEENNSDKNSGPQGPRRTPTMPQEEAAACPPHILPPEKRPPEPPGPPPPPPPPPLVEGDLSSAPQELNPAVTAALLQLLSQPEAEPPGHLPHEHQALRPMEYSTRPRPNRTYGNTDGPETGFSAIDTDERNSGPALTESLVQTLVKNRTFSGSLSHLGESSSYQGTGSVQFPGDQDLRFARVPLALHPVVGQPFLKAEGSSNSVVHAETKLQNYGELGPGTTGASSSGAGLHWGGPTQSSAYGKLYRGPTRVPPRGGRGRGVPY
T1 sequence (Q16531 whole entry): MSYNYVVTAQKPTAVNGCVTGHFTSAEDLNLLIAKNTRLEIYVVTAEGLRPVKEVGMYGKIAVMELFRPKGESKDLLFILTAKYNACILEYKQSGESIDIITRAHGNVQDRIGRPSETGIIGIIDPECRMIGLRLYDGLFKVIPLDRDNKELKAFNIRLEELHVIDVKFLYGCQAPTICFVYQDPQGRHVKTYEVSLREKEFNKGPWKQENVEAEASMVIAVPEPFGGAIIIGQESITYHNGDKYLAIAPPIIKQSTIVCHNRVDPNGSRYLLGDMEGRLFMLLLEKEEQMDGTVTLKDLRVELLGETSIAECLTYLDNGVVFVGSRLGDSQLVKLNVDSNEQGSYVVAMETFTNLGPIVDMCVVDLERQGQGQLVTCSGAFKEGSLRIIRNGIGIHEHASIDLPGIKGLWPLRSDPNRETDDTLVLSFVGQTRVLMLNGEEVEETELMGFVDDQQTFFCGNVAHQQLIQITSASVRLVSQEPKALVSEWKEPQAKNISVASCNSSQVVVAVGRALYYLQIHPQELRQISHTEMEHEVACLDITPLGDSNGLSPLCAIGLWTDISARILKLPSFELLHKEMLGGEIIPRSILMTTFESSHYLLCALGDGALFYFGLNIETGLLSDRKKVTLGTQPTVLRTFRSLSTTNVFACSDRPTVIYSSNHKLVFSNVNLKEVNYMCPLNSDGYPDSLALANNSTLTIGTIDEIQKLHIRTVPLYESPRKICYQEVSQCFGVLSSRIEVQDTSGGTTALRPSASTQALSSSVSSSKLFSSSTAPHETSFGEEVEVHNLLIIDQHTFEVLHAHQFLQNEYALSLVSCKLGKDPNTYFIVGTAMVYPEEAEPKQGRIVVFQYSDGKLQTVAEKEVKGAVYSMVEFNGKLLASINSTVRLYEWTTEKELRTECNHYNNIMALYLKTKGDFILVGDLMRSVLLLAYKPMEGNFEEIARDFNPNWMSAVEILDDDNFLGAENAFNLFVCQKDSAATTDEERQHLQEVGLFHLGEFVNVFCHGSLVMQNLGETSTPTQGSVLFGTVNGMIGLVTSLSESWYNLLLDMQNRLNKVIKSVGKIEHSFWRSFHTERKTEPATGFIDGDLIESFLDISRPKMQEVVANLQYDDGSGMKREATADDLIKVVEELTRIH
T1 sequence (O75909 whole entry partner): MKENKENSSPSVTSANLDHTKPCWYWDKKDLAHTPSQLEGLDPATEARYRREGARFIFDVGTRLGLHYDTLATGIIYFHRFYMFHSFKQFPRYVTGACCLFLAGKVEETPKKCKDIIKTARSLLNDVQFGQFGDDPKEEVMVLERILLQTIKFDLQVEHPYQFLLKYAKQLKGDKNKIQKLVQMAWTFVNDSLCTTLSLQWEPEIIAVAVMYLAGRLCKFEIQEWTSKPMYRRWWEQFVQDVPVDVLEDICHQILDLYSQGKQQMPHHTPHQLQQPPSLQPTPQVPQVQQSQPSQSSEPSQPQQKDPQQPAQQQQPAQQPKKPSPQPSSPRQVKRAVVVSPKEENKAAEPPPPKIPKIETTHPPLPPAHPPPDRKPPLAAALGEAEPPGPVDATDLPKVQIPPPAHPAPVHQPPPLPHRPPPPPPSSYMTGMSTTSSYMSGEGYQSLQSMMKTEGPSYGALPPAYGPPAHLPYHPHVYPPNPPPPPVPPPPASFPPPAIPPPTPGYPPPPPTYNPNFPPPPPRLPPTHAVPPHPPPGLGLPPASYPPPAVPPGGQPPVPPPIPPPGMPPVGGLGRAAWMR
Method: This assay measures the interaction/recruitment of CDK12/Cyclin K to DDB1, mechanistically validating the molecular glue pharmacology.
HEK293T wildtype cells are seeded 800 k cells/well (DMEM+10% FBS+1% PS) in a 6-well plate and allowed to attach for ˜7 hours followed by a transient transfection of 1.5 μg HaloTag_CDK12 Plasmid [Table 1] and 0.15 μg NanoLuc_DDB1 plasmid [Table 1] per well using PEI. Cells are incubated at 37° C., 5% CO2, harvested after 24 hours and resuspended in assay media (Opti-MEM Reduced serum media, no phenol red, 4% FBS, 1% PS). Cells are adjusted to 2.3×10^5 cells/ml and treated with HaloTag 618 Ligand at 100 nM or DMSO. 8000 cells are seeded per well in triplicates per compound in a white-walled 384-well plate, one negative control treated with DMSO instead of HaloTag 618 Ligand is seeded in triplicates and the 384-well plate is incubated at 37° C., 5% CO2 overnight. Compound stock solutions are prepared in Opti-MEM−/− (Opti-MEM I Reduced serum media, no phenol red) at 8× and used to treat the cells at a final concentration of 1× at 10 μM. Cells and compounds are incubated for 10 minutes at room temperature followed by addition of NanoBRET Nano-Glo substrate following manufacturer's protocols. The plate is shaken for 30 sec followed by immediate measurement of donor emission (NanoBRET Blue at 460 nm) and acceptor emission (BRET Deep Red at 647 nm) for 0.5 s.

[2] = test system: KBM7 cells (wild-type); experiment: KBM7 CTG EC50 assay (UBE2M wild-type); assay type: cell-based, human; settings: for EC50: Homo sapiens, KBM-7, 72 h incubation, CellTiter-Glo, read-out: KBM7 CTG EC50 (UBE2M wild-type) Activity Class; for Ratio UBE2M WT to KO: ratio of anti-proliferative activity in KBM7 wild-type versus UBE2M knock-out cells (fold)
From the text: (§1) This is a cell viability assay to measure the desired therapeutic effect, i.e. killing of cancer cells. The UBE2M mutant cell line has impaired activity of the Cullin-RING ligase system due to a hypomorphic mutation in UBE2M, which is required for activation of these E3 ligases. By comparison with WT cells, it is possible to estimate the contribution of Cyclin K degradation (which is reduced in UBE2M mut cells) compared to kinase inhibition of CDK12 (which is unaffected in UBE2M mut cells). Since the UBE2M mutation only reduces CRL function without fully abrogating it, this assay may slightly underestimate the effect of degradation because, at high compound concentrations, degradation may still be observed.
(§2) KBM7 cells (wild-type or harboring α hypomorphic UBE2M mutation (Mayor-Ruiz et al., 2019)) were seeded in a white opaque 384-well plate at a density of 1000 cells per well in duplicate, in full medium (IMDM+10% FBS+1% penicillin-streptomycin). Cells were treated with compounds in a 10-point titration with a dilution factor of 1:4 (range: 0 to 20 μM). After 72 h of incubation, the cell viability was determined using the CellTiter-Glo® 2.0 reactant (Promega), pre-diluted 1:4 in mQ water. The luminescence signal was measured using the multimode plate reader EnVision 2105 (Perkin Elmer).

[3] = test system: KBM7 cells harboring a hypomorphic UBE2M mutation; experiment: KBM7 CTG EC50 assay (UBE2M knock-out); assay type: cell-based; settings: Homo sapiens, KBM-7; 72 h incubation, CellTiter-Glo; read-out: KBM7 CTG EC50 (UBE2M knock-out) Activity Class
From the text: as §1, §2

[4] = test system: CCNK; experiment: NanoLuc-CCNK degradation assay (HEK293T_Nluc_CCNK-tagged cells); assay type: cell-based; settings: 4 h incubation, HEK293T_Nluc_CCNK-tagged cells; for DC50: read-out: NanoLuc-CCNK degradation DC50 Activity Class
Method: The assay helps to elucidate the mechanistic explanation of the cell killing effect of the compounds of the present invention. Cyclin K is fused to a nanoluciferase, light emission is measured as a proxy of Cyclin K abundance. Potency of Cyclin K degradation and cytotoxicity of KBM7 correlate extremely well, further supporting Cyclin K degradation being the main driver of the cell killing, as opposed to inhibition of CDK12 catalytic activity.
HEK293T_Nluc_CCNK-tagged cells were engineered by integrating a nanoluciferase tag at the N-terminus of the endogenous locus of CCNK using CRISPR-Cas9 technology. Briefly, 5.5 million HEK293T cells were co-transfected by PEI with a 1:1 ratio of cutting vector (sgRNA: […]) and repair template (4 μg total plasmid) as previously described (Brand and Winter, 2019). The repair sequence comprises a cassette of puromycinR-P2A-HA-Nluc-(G4S)3 (P2A: self-cleaving peptide 2A, HA: HA-tag, (G4S)3: flexible linker), surrounded by 20-nucleotide microhomologies matching the genomic locus. After 3 days of incubation, the recombinant population was selected by puromycin treatment (2 μg/ml, 5-day treatment). A monoclonal population was obtained by limiting dilution and cassette integration validated by Sanger sequencing.
HEK293T_Nluc_CCNK-tagged cells were seeded in a white opaque 384-well plate at a density of 8000 cells per well in duplicate, in full medium (Opti-MEM I+4% FBS+1% PS). Cells were treated with compounds in a 10-point titration (range: 0 to 10 μM, 1:4 dilution). After 4 h of incubation, Nano-Glo substrate (Promega), pre-diluted in serum-free medium (Opti-MEM I), was added to the cells (1:500 final dilution). The luminescence signal was directly measured using the multimode plate reader EnVision 2105 (Perkin Elmer).

Compound	NanoBRET fold-change Activity Class [1]	EC50 [2] [µM]	Ratio UBE2M WT to KO [2]	EC50 [3] [µM]	DC50 [4] [µM]	NanoLuc-CCNK degradation DC50 Activity Class [4]
O=C(Cc1cn2cc(F)ccc2n1)Nc1cc(Br)[nH]n1 [Example 3-58, N-(5-bromo-1H-pyrazol-3-yl)-2-(6-fluoroimidazo[1,2-a]pyridin-2-yl)acetamide]	C (2-3 fold increase)	≤ 0.25	>10	> 10	> 10	–
Cc1cccn2c(CC(=O)Nc3ncc(C(F)(F)F)s3)cnc12 [Example 3-6, 2-(8-methylimidazo[1,2-a]pyridin-3-yl)-N-(5-(trifluoromethyl)thiazol-2-yl)acetamide]	C (2-3 fold increase)	≤ 0.25	129.4	1 to 10	–	D (10 μM≤DC50<1.0 μM)
Cc1ccc2c(CC(=O)Nc3ccc(C(F)(F)F)cn3)coc2c1C [Example 3-54, 2-(6,7-dimethylbenzofuran-3-yl)-N-(5-(trifluoromethyl)pyridin-2-yl)acetamide]	C (2-3 fold increase)	≤ 0.25	24.7	1 to 10	> 10	–
Cc1ccc(CN2CC(C(=O)Nc3ncc(C(F)(F)F)s3)CC2=O)cc1 (centres unmarked) [Example 3-29, 1-(4-methylbenzyl)-5-oxo-N-(5-(trifluoromethyl)thiazol-2-yl)pyrrolidine-3-carboxamide]	B (3-4 fold increase)	0.5 to 1	>16	> 10	> 10	–
O=C(Cc1c[nH]c2nccc(Cl)c12)Nc1ncc(C(F)(F)F)s1 [Example 3-39, 2-(4-chloro-1H-pyrrolo[2,3-b]pyridin-3-yl)-N-(5-(trifluoromethyl)thiazol-2-yl)acetamide]	B (3-4 fold increase)	1 to 10	>4	> 10	–	D (10 μM≤DC50<1.0 μM)
CC(C)c1ccc(NC(=O)Cc2cn3cc(F)ccc3n2)nc1 [Example 3-61, 2-(6-fluoroimidazo[1,2-a]pyridin-2-yl)-N-(5-isopropylpyridin-2-yl)acetamide]	A (greater than 4-fold increase)	≤ 0.25	>20	> 10	–	B (0.50 μM≤DC50<0.10 μM)
O=C(Nc1ncc(C(F)(F)F)s1)C1CC(=O)N(Cc2ccccc2)C1 (centres unmarked) [Example 3-27, 1-benzyl-5-oxo-N-(5-(trifluoromethyl)thiazol-2-yl)pyrrolidine-3-carboxamide]	B (3-4 fold increase)	≤ 0.25	>10	> 10	≤ 0.1	–
Cc1c(CC(=O)Nc2ncc(C(F)(F)F)s2)sc2ccccc12 [Example 3-12, 2-(3-methylbenzo[b]thiophen-2-yl)-N-(5-(trifluoromethyl)thiazol-2-yl)acetamide]	D (1-2 fold increase)	> 10	>10	> 10	> 10	–
CC(C)c1cc(NC(=O)Cc2cn3cc(F)ccc3n2)n[nH]1 [Example 3-57, 2-(6-fluoroimidazo[1,2-a]pyridin-2-yl)-N-(5-isopropyl-1H-pyrazol-3-yl)acetamide]	B (3-4 fold increase)	≤ 0.25	146.3	1 to 10	–	B (0.50 μM≤DC50<0.10 μM)
O=C(Cc1cccc2ccncc12)Nc1ncc(C(F)(F)F)s1 [Example 3-33, 2-(isoquinolin-8-yl)-N-(5-(trifluoromethyl)thiazol-2-yl)acetamide]	A (greater than 4-fold increase)	≤ 0.25	64.7	1 to 10	> 10	–
O=C(Nc1ncc(C(F)(F)F)s1)C1CC(=O)N(c2ccc3c(c2)CCC3)C1 (centres unmarked) [Example 3-24, 1-(2,3-dihydro-1H-inden-5-yl)-5-oxo-N-(5-(trifluoromethyl)thiazol-2-yl)pyrrolidine-3-carboxamide]	B (3-4 fold increase)	≤ 0.25	23.8	1 to 10	–	B (0.50 μM≤DC50<0.10 μM)
O=C(Nc1ncc(C(F)(F)F)s1)C1CC(=O)N(c2cc(F)cc(F)c2)C1 (centres unmarked) [Example 3-21, 1-(3,5-difluorophenyl)-5-oxo-N-(5-(trifluoromethyl)thiazol-2-yl)pyrrolidine-3-carboxamide]	B (3-4 fold increase)	≤ 0.25	44.5	1 to 10	–	B (0.50 μM≤DC50<0.10 μM)
CC(C(=O)Nc1ncc(C(F)(F)F)s1)c1cc2ccccc2s1 (centres unmarked) [Example 3-11, 2-(benzo[b]thiophen-2-yl)-N-(5-(trifluoromethyl)thiazol-2-yl)propanamide]	A (greater than 4-fold increase)	≤ 0.25	9.4	≤ 0.25	≤ 0.1	–
O=C(Cc1ccc2ccncc2c1)Nc1ncc(C(F)(F)F)s1 [Example 3-32, 2-(isoquinolin-7-yl)-N-(5-(trifluoromethyl)thiazol-2-yl)acetamide]	B (3-4 fold increase)	≤ 0.25	115.9	1 to 10	≤ 0.1	–
Cc1ccc2c(CC(=O)Nc3cc(C4CC4)[nH]n3)coc2c1C [Example 3-46, N-(5-cyclopropyl-1H-pyrazol-3-yl)-2-(6,7-dimethylbenzofuran-3-yl)acetamide]	B (3-4 fold increase)	0.5 to 1	>10	> 10	–	D (10 μM≤DC50<1.0 μM)
Cc1ccc(N2CC(C(=O)Nc3ncc(C(F)(F)F)s3)CC2=O)cc1 (centres unmarked) [Example 3-16, 5-oxo-1-(p-tolyl)-N-(5-(trifluoromethyl)thiazol-2-yl)pyrrolidine-3-carboxamide]	C (2-3 fold increase)	0.25 to 0.5	>10	> 10	–	C (1.0 μM≤DC50<0.50 μM)
